# According to patent US9079913B2, “Spiro-oxindole MDM2 antagonists” (The Regents of the University of Michigan, priority 2009, dated 2015):
# “Also recorded” adds a separate entry of the source. Like-named read-outs stand apart in the source and are kept apart here.
# What was measured:
# [1] = In vitro microsomal stability, human; type: in vitro ADME
# [2] = In vitro microsomal stability, rat; type: in vitro ADME
# [3] = Pharmacokinetic studies in rats; type: in vivo, rat
# Procedure: Pharmacokinetic studies on MDM2 inhibitors were carried out in rat. For comparison, the MDM2 inhibitor, AT-219, was also studied.
# [4] = molecular target: recombinant human His-tagged MDM2 protein (residues 1-118) (Homo sapiens (Human), UniProt Q00987); experiment: Fluorescence-polarization MDM2 binding assay;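 further: fluorescence polarization read after three hours of incubation in potassium phosphate buffer containing bovine gamma globulin and Triton X-100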
# Sequence of recombinant human His-tagged MDM2 protein (residues 1-118) (Q00987 1-118): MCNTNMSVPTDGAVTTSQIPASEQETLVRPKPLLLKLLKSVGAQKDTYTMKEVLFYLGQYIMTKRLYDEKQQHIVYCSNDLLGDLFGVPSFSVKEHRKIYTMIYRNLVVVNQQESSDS
# SJSA-1 xenograft tumors = experiment: In vivo efficacy, SJSA-1 xenograft model (tumor volume); design: species or system C.B-17 SCID mice; settings: for % Tumor Growth Inhib. T/C Control 750 mm^3 D29: Exp. No. 3, SJSA-1 xenograft
# Procedure: SJSA-1 tumor cells were harvested with Trypsin (0.05%)-EDTA (0.53 mM) (GIBCO™, Invitrogen Corp.), growth medium added and cells placed on ice. A cell sample was mixed 1:1 with Trypan Blue (GIBCO™, Invitrogen Corp.) and counted on a hemocytometer to determine the number of live/dead cells. Cells were washed once with 1×PBS (GIBCO™, Invitrogen Corp.) and resuspended in PBS. For Matrigel injections, after washing in PBS, cells are resuspended in an ice cold mixture of 1:1 PBS and Matrigel (BD Biosciences, Invitrogen Corp.) for a final Matrigel protein concentration of 5 mg/ml. SJSA-1 tumors were inoculated into C.B-17 SCID mice at 5×10^6 cells in 0.1 ml with Matrigel. Cells were injected s.c. into the flank region of each mouse using a 27 gauge needle.
# The size of tumors growing in the mice was measured in two dimensions using calipers. Tumor volume (mm^3)=(A×B2)/2 where A and B are the tumor length and width (in mm), respectively. During treatment, tumor volume and body weight was measured three times a week. […] Mice were kept for an additional 60 days for further observation of tumor growth and toxicity.
# [5] = system: Isogenic HCT-116 colon cancer cell lines; experiment: cells; type: cell-based;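 further: cells grown in 96-well plates in McCoy's 5A medium with 10% FBS, exposed to compound for 4 days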
# Procedure: Cells were seeded in 96-well flat bottom cell culture plates at a density of 2−3×10^3 cells/well with compounds and incubated for 4 days.
# [6] = system: cancer cell lines with wild-type p53 / mutated or deleted p53 (ATCC); experiment: Cell growth assay (WST-8), other cancer cell lines; type: cell-based
# [7] = Animal weight in SJSA-1 xenograft studies; type: in vivo, C.B-17 SCID mice; settings: SJSA-1 xenograft mice
# Procedure: The size of tumors growing in the mice was measured in two dimensions using calipers. Tumor volume (mm^3)=(A×B2)/2 where A and B are the tumor length and width (in mm), respectively. During treatment, tumor volume and body weight was measured three times a week. After the treatment was stopped, tumor volume (FIGS. 7, 9, 11, and 36) and body weight (FIGS. 8, 10, 12, and 37) was measured at least once a week. Mice were kept for an additional 60 days for further observation of tumor growth and toxicity.
# Before treatment began, tumors were allowed to grow to 60-140 mm^3 in volume, at which point the blood vessel supplies to the tumor should have been established. Mice with tumors within acceptable size range were randomized into treatment groups of 8 mice for experimental compounds and 10 mice for the Control group. Experimental compounds were given orally, once per day for 2-3 weeks. The Control group received vehicle alone (10% PEG 400: 3% Cremophor: 87% PBS).
# [8] = rat, IV, 5 mg/kg, plasma, parent compound
smiles,measurement,setting,value
CC(C)(C)C[C@H]1N[C@@H](C(=O)NC2CCC(NS(C)(=O)=O)CC2)[C@H](c2cccc(Cl)c2F)[C@@]12C(=O)Nc1cc(Cl)ccc12 (some centres unmarked) [MI-772],microsomal stability (in words),[1]; human liver microsomes,very stable
same,t1/2,[1]; human liver microsomes with NADPH,>1 h
same,% of compound remaining when incubated in human liver microsomes with NADPH,"[1]; human liver microsomes, NADPH, 0 min",100.00%
same,% of compound remaining when incubated in human liver microsomes with NADPH,"[1]; human liver microsomes, NADPH, 5 min",95.37%
same,% of compound remaining when incubated in human liver microsomes with NADPH,"[1]; human liver microsomes, NADPH, 10 min",86.87%
same,% of compound remaining when incubated in human liver microsomes with NADPH,"[1]; human liver microsomes, NADPH, 15 min",82.24%
same,% of compound remaining when incubated in human liver microsomes with NADPH,"[1]; human liver microsomes, NADPH, 30 min",77.91%
same,% of compound remaining when incubated in human liver microsomes with NADPH,"[1]; human liver microsomes, NADPH, 45 min",63.28%
same,% of compound remaining when incubated in human liver microsomes with NADPH,"[1]; human liver microsomes, NADPH, 60 min",56.87%
same,microsomal stability (in words),[2]; rat liver microsomes,very stable
same,t1/2,[2]; rat liver microsomes with NADPH,>1 h
same,% of compound remaining when incubated in rat liver microsomes with NADPH,"[2]; rat liver microsomes, NADPH, 0 min",100.00%
same,% of compound remaining when incubated in rat liver microsomes with NADPH,"[2]; rat liver microsomes, NADPH, 5 min",93.46%
same,% of compound remaining when incubated in rat liver microsomes with NADPH,"[2]; rat liver microsomes, NADPH, 10 min",91.15%
same,% of compound remaining when incubated in rat liver microsomes with NADPH,"[2]; rat liver microsomes, NADPH, 15 min",89.04%
same,% of compound remaining when incubated in rat liver microsomes with NADPH,"[2]; rat liver microsomes, NADPH, 30 min",88.27%
same,% of compound remaining when incubated in rat liver microsomes with NADPH,"[2]; rat liver microsomes, NADPH, 45 min",78.65%
same,% of compound remaining when incubated in rat liver microsomes with NADPH,"[2]; rat liver microsomes, NADPH, 60 min",75.96%
same,oral bioavailability / oral pharmacokinetics in rats (in words),"[3]; oral dosing, rats",modest oral bioavailability
same,CLz,[3]; [8],16.7 mL/min/kg
same,Vz,[3]; [8],10.9 L/kg
same,half-life in rats (in words),"[3]; rats, intravenous and oral",long plasma half-life
same,IC50,"[4]; Table 19A, FP binding assay, read-out: MDM2 IC50",< 1 µM
same,binding to MDM2 (in words),[4]; human MDM2 protein,high affinities
same,% Tumor Growth Inhib. T/C Control 750 mm^3 D24,"SJSA-1 xenograft tumors; Exp. No. 2, SJSA-1 xenograft, PO 100 mg/kg, D24",71.1%
same,IC50,"[5]; read-out: HCT-116 (p53-/-) IC50, Table 19A, HCT-116 p53-/-, cell growth",> 5 µM
same,IC50,"[5]; read-out: HCT-116 (p53 wild-type) IC50, Table 19A, HCT-116 p53 wild-type, cell growth",< 1 µM
same,"relative potency vs epimer, binding and cellular studies (in words)",[6],several times more potent than MI-771
same,IC50,"[6]; Table 19A, LNCAP cells, p53 wild-type, cell growth, read-out: LNCAP (p53 wild-type) IC50",< 1 µM
same,IC50,"[6]; Table 19A, PC-3 cells, deleted p53, cell growth, read-out: PC-3 (deleted p53) IC50",> 5 µM
same,IC50,"[6]; Table 19A, SJSA-1 cells, p53 wild-type, cell growth, read-out: SJSA-1 (p53 wild-type) IC50",< 1 µM
same,cell growth inhibition (in words),[6]; cancer cell lines with wild-type p53,effectively inhibit cell growth
CC(C)(C)C[C@H]1N[C@@H](C(=O)N[C@H]2C[C@@](C)(O)C2)[C@H](c2cccc(Cl)c2F)[C@@]12C(=O)Nc1cc(Cl)ccc12 [MI-519-64],% of compound remaining when incubated in human liver microsomes with NADPH,[1]; 0 min,100%
same,% of compound remaining when incubated in human liver microsomes with NADPH,[1]; 5 min,83.66%
same,% of compound remaining when incubated in human liver microsomes with NADPH,[1]; 10 min,80.61%
same,% of compound remaining when incubated in human liver microsomes with NADPH,[1]; 15 min,65.86%
same,% of compound remaining when incubated in human liver microsomes with NADPH,[1]; 30 min,61.26%
same,% of compound remaining when incubated in human liver microsomes with NADPH,[1]; 45 min,55.9%
same,% of compound remaining when incubated in human liver microsomes with NADPH,[1]; 60 min,53.21%
same,% of compound remaining when incubated in rat liver microsomes with NADPH,[2]; 0 min,100%
same,% of compound remaining when incubated in rat liver microsomes with NADPH,[2]; 5 min,71.95%
same,% of compound remaining when incubated in rat liver microsomes with NADPH,[2]; 10 min,64.86%
same,% of compound remaining when incubated in rat liver microsomes with NADPH,[2]; 15 min,48.47%
same,% of compound remaining when incubated in rat liver microsomes with NADPH,[2]; 30 min,43.38%
same,% of compound remaining when incubated in rat liver microsomes with NADPH,[2]; 45 min,41.19%
same,% of compound remaining when incubated in rat liver microsomes with NADPH,[2]; 60 min,43.03%
same,weight loss in the animals (in words),[7],without significant weight loss
same,CLz,[3]; [8],30 mL/min/kg
same,Vd,"[3]; rat, plasma, iv, 5 mg/kg, rat, IV, 5 mg/kg, plasma, parent compound, read-out: Vz",9 L/kg
same,% Tumor Growth Inhib. T/C Control 750 mm^3 D29,SJSA-1 xenograft tumors; PO 30 mg/kg,20.7%
same,% Tumor Growth Inhib. T/C Control 750 mm^3 D29,SJSA-1 xenograft tumors; PO 100 mg/kg,5.3%
same,IC50,"[5]; Homo sapiens, HCT-116, read-out: HCT-116 (p53-/-) IC50",> 10 µM
same,IC50,"[5]; Homo sapiens, HCT-116, read-out: HCT-116 (p53 wild-type) IC50",< 1 µM
same,cell growth inhibition (in words),[6],more potent than its epimer MI-519-65; also recorded: effectively inhibit cancer cell growth
same,IC50,"[6]; Homo sapiens, LNCaP, read-out: LNCAP (p53 wild-type) IC50",< 1 µM
same,IC50,"[6]; Homo sapiens, SJSA-1, read-out: SJSA-1 (p53 wild-type) IC50",< 1 µM
